This note sets out measurements from PubChem BioAssay (NCI).

Molecules are shown by their SMILES.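 Dose response: 5 concentrations. Exposure: 48 h. Format: 96-well plates. Endpoint: linear interpolation; highest concentration if not reached. GI50 is the concentration that inhibits growth by half. TGI is the concentration that stops growth completely.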 Where only a bound is given, the exact number is not on record here.

Among the test systems are KM12 colon; HOP-92 NSCLC; U251 CNS; RXF 393 renal; ACHN renal; CCRF-CEM leukemia; OVCAR-3 ovarian; NCI-H23 lung; HCT-15 colon; SR leukemia; OVCAR-5 ovarian; OVCAR-4 ovarian; MALME-3M melanoma; SK-MEL-5 melanoma; NCI-H522 lung; A549 NSCLC; HOP-62 NSCLC; HT29 colon; SNB-75 CNS.
Common to all, as to test: inhibition of tumour cell growth, NCI panel, 48 h

Regarding `CN(C)CCCN1c2ccccc2Sc2ccc3ccccc3c21`, the TGI stood at 19.3 µM in the assay with KM12 colon; 21 µM with HOP-92 NSCLC; 20 µM in the assay on U251 CNS; 3.92 µM in the assay with RXF 393 renal; 20.9 µM in the assay on ACHN renal; 8.2 µM in the assay with CCRF-CEM leukemia. Further, the TGI with OVCAR-3 ovarian was determined as 21.7 µM; in the assay on NCI-H23 lung, 28.2 µM; with HCT-15 colon, 19.2 µM; with SR leukemia it was 3.84 µM; in the assay on OVCAR-5 ovarian, 24.7 µM; in the assay on OVCAR-4 ovarian, 17.8 µM. Besides, the TGI with MALME-3M melanoma amounted to 21.6 µM; with SK-MEL-5 melanoma it was 8.21 µM; in the assay on NCI-H522 lung, 22.8 µM; with A549 NSCLC it was 26.6 µM; with HOP-62 NSCLC it was 24.8 µM; with HT29 colon, 12.5 µM.
For `O=C1C(Cl)=C(Nc2ccc(S(=O)(=O)O)cc2)C(=O)c2ccccc21`, the TGI in the assay with KM12 colon is 56.3 µM; in the assay with HOP-92 NSCLC, 34.6 µM; in the assay on U251 CNS, more than 100 µM; with RXF 393 renal it was 37.6 µM; with ACHN renal, 45.8 µM; in the assay on CCRF-CEM leukemia, more than 100 µM. The TGI in the assay with OVCAR-3 ovarian was 43.4 µM; with NCI-H23 lung, more than 100 µM; in the assay with HCT-15 colon, more than 100 µM; in the assay with SR leukemia, more than 100 µM; in the assay on OVCAR-5 ovarian it was more than 100 µM; in the assay with OVCAR-4 ovarian it was more than 100 µM. In addition, the TGI with MALME-3M melanoma is 36.9 µM; in the assay with SK-MEL-5 melanoma it was 28 µM; in the assay with SNB-75 CNS, more than 100 µM; in the assay with NCI-H522 lung, 33.5 µM; in the assay with A549 NSCLC, 58.7 µM; with HOP-62 NSCLC, more than 100 µM. This compound registered a TGI in the assay with HT29 colon of more than 100 µM.
Turning to `CCCc1c(-c2ccccc2)[nH]c2ccccc2c1=O`, the TGI with KM12 colon was 88.2 µM; in the assay with HOP-92 NSCLC, more than 100 µM; with U251 CNS, more than 100 µM; in the assay on RXF 393 renal, more than 100 µM; in the assay with ACHN renal, more than 100 µM; with CCRF-CEM leukemia, more than 100 µM. The TGI in the assay with OVCAR-3 ovarian, with NCI-H23 lung, in the assay on HCT-15 colon, in the assay with SR leukemia, with OVCAR-5 ovarian and in the assay on OVCAR-4 ovarian was more than 100 µM in each case. The results for the TGI with MALME-3M melanoma, in the assay with HOP-62 NSCLC and in the assay on HT29 colon were more than 100 µM, more than 100 µM and 50.3 µM, respectively.
`O=C1OC2(CC1C1(O)C3CC4CC(C3)CC1C4)C1CC3CC(C1)CC2C3` (stereo not given): the TGI with KM12 colon, with RXF 393 renal, with ACHN renal, with CCRF-CEM leukemia, in the assay on OVCAR-3 ovarian and in the assay on NCI-H23 lung was more than 100 µM throughout. Further, the TGI with HCT-15 colon is more than 100 µM; with OVCAR-4 ovarian, 76.6 µM; with MALME-3M melanoma, more than 100 µM; in the assay on SK-MEL-5 melanoma it was more than 100 µM; in the assay on SNB-75 CNS it was more than 100 µM; with A549 NSCLC, more than 100 µM. Further, the TGI in the assay on HT29 colon is more than 100 µM.
Take `Cn1c(=O)c2[nH]c(CCNC(=O)c3ccccc3)nc2n(C)c1=O`: the TGI in the assay with KM12 colon, in the assay with HOP-92 NSCLC, with U251 CNS, with RXF 393 renal, with ACHN renal and with CCRF-CEM leukemia was more than 100 µM each time. Further, the TGI in the assay on OVCAR-3 ovarian, in the assay on NCI-H23 lung, with HCT-15 colon, with SR leukemia, in the assay on OVCAR-5 ovarian and in the assay on OVCAR-4 ovarian was more than 100 µM throughout. Also, the TGI in the assay on MALME-3M melanoma, in the assay with SK-MEL-5 melanoma, in the assay with SNB-75 CNS, in the assay with NCI-H522 lung, in the assay on A549 NSCLC and in the assay with HOP-62 NSCLC was more than 100 µM each time. In addition, the TGI in the assay on HT29 colon was more than 100 µM.
In the case of `N#C[C@H](OC1OC(COC2OC(CO)C(O)C(O)C2O)C(O)C(O)C1O)c1ccccc1` (stereo not given in full), the TGI in the assay on KM12 colon, with HOP-92 NSCLC, in the assay with U251 CNS, with RXF 393 renal, in the assay on CCRF-CEM leukemia and with OVCAR-3 ovarian was more than 250 µM in each case. Also, the TGI in the assay on NCI-H23 lung, in the assay on HCT-15 colon, in the assay with OVCAR-5 ovarian, in the assay with OVCAR-4 ovarian, with MALME-3M melanoma and in the assay on SK-MEL-5 melanoma was more than 250 µM each time. For the same compound, the TGI in the assay with SNB-75 CNS, in the assay with NCI-H522 lung, in the assay on A549 NSCLC, with HOP-62 NSCLC and with HT29 colon was more than 250 µM each time. In addition, in the assay with HOP-92 NSCLC, the GI50 was more than 250 µM.
Take `O=C(Nc1nc2ccc([N+](=O)[O-])cc2s1)C(=O)C(C(=O)c1ccccc1F)C1OC(=O)c2ccccc21` (stereo not given): the TGI in the assay with KM12 colon was more than 100 µM; in the assay with HOP-92 NSCLC, more than 100 µM; in the assay with U251 CNS, 41.3 µM; in the assay on ACHN renal it was more than 100 µM; in the assay with CCRF-CEM leukemia, 48.7 µM; in the assay with NCI-H23 lung, more than 100 µM. Also, the TGI in the assay on HCT-15 colon was more than 100 µM; with SR leukemia, 54.2 µM; in the assay with OVCAR-5 ovarian, more than 100 µM; in the assay with OVCAR-4 ovarian, more than 100 µM; in the assay on SK-MEL-5 melanoma, more than 100 µM; in the assay with SNB-75 CNS, 74.5 µM. The TGI in the assay on NCI-H522 lung is 51.8 µM; in the assay on A549 NSCLC, more than 100 µM; in the assay with HOP-62 NSCLC it was more than 100 µM; in the assay on HT29 colon, more than 100 µM.
Take `O=c1ssc(=Nc2ccccc2)n1-c1ccccc1`: the TGI with KM12 colon is more than 100 µM; in the assay on HOP-92 NSCLC, 98.5 µM; with U251 CNS it was 50 µM; with ACHN renal, 31.1 µM; in the assay on CCRF-CEM leukemia it was more than 100 µM; with OVCAR-3 ovarian, 53.1 µM. Further, the TGI in the assay with NCI-H23 lung is 50.2 µM; with HCT-15 colon, 35 µM; with SR leukemia it was 40.9 µM; in the assay on OVCAR-5 ovarian, more than 100 µM; in the assay on OVCAR-4 ovarian it was 33.2 µM; in the assay on MALME-3M melanoma, more than 100 µM. The TGI in the assay with SK-MEL-5 melanoma was more than 100 µM; with SNB-75 CNS it was more than 100 µM; in the assay with A549 NSCLC, more than 100 µM; with HOP-62 NSCLC, 46.5 µM; in the assay on HT29 colon, more than 100 µM.
